Experimental data taken from PubChem BioAssay AID1996.
Values after ≈ are worked out from the molar mass of the structure shown.

Details: buffer; pH 7.4; 200.0 µM

Structure (SMILES)	solubility kinetic [µg/mL]
O=C(C(=S)N1CCOCC1)c1c[nH]c2ccccc12	> 41.2
CS(=O)(=O)/C(C#N)=C/c1c(-c2ccccc2)nc2n1CCS2	2.4 (≈ 7.24 µM)
O=C1Nc2ccc(Br)cc2C(c2ccccc2)=NC1O (stereo not given)	> 49.7
CC(C)(C)C(=O)OCc1nc(-c2ccc(C(F)(F)F)cc2)cs1	< 0.7
COc1ccc(C(=O)NC(=S)N2CCOCC2)cc1[N+](=O)[O-]	> 48.8
O=c1oc2ccc(Cl)cc2nc1/C=C(\O)c1cccs1	20.9 (≈ 68.4 µM)
O=C(NCc1ccc(Cl)c(Cl)c1)C1CCCC1	32.6 (≈ 120 µM)
CCC(C)c1ccc(NC(=O)NCCN2CCCCC2)cc1 (stereo not given)	40.3 (≈ 133 µM)
CCc1ccc(C(N)=S)cc1	> 24.8
CC(=O)Nc1ccc(C(=O)OCC(=O)NCc2ccc3c(c2)OCO3)cc1	8.1 (≈ 21.9 µM)
Cc1cc(C)nc(SCC(N)=O)n1	28.5 (≈ 144 µM)
COc1ccc(N2CCN(C(=O)NC(=O)c3ccccc3)CC2)cc1	38.7 (≈ 114 µM)
O=C(NCC1CCCO1)c1cccc2ccccc12 (stereo not given)	> 38.3
CCN(CC)C(=S)Nc1c(C)n(C)n(-c2ccccc2)c1=O	> 47.8
Cc1cnc([N+](=O)[O-])n1CCOC(=O)NC(=O)c1c(F)cccc1F	> 53.1
CCCc1nc2oc3ccccc3c(=O)c2c(=O)n1-c1ccccc1	37.2 (≈ 112 µM)
O=C(O)C1CC(O)CN1C(=S)Nc1ccccc1 (stereo not given)	> 39.9
CCCOc1ccc(CNC(=O)Cc2cccs2)cc1	19.9 (≈ 68.8 µM)
COC(=O)c1ccccc1S(=O)(=O)N1CCn2cccc2C1C (stereo not given)	43.2 (≈ 129 µM)
CN(C(=O)COc1ccc(Br)cc1Cl)C1CCCCC1	19.8 (≈ 54.9 µM)

Structure (SMILES)	solubility kinetic [µg/mL]
O=C(COC(=O)CC1CC2CCC1C2)Nc1ccccc1[N+](=O)[O-] (stereo not given)	2.9 (≈ 8.73 µM)
COC(=O)C1=C(N)OC2=C(C(=O)CCC2)C1c1cccnc1 (stereo not given)	42.7 (≈ 142 µM)
Cc1ccc(C)c(SCC(=O)Nc2cccc(S(=O)(=O)N3CCOCC3)c2)c1	21.4 (≈ 50.9 µM)
COc1ccccc1CNC(=O)CSc1nc(C)cs1	> 46.3
CC(C)(C)NC(=O)COc1ccc(CNc2ccc3[nH]c(=O)[nH]c3c2)cc1	0.8 (≈ 2.17 µM)
CC(C)c1ccc(/C=C/C(=O)N2CCOCC2)cc1	36.3 (≈ 140 µM)
O=C(CNC(=O)c1cccs1)c1ccc(Br)cc1	17.9 (≈ 55.2 µM)
CCc1ccc2nc(N)sc2c1	> 26.7
O=C(COC(=O)C1=COCCO1)NCc1ccc(Cl)cc1	44.7 (≈ 143 µM)
Cc1ccc(C(=O)NC(=S)N2CCCC2)cc1	> 37.3
CNC(=O)c1ccc(Nc2nc(-c3ccccc3)nc3ccccc23)cc1	14.9 (≈ 42 µM)
CN=C(Nc1ccc(C(=O)OC)s1)c1ccccc1	29.6 (≈ 108 µM)
CCOc1ncccc1C(=O)Nc1ccc2c(c1)OCCO2	> 45
Cc1cc(OCC(=O)N2CCCN(C)CC2)ccc1Cl	> 44.5
CC1CCc2[nH]c3ccc(C(=O)O)cc3c2C1 (stereo not given)	> 34.4
O=C(CSc1ncccc1C(=O)O)c1cccc(C(F)(F)F)c1	> 51.2
COc1cccc(C(=O)OCC(=O)N2CCC(Cc3ccccc3)CC2)c1OC	28.1 (≈ 70.7 µM)
Cc1cc(C)cc(OCC(=O)Nc2nc(-c3cccnc3)cs2)c1	3.2 (≈ 9.43 µM)
CCCc1cc(=O)[nH]c(SCC(=O)N2CCC(C)CC2)n1	> 46.4
CN(C)C(=O)Oc1ccc2c(c1)O/C(=C\c1cccc([N+](=O)[O-])c1)C2=O	< 0.4

Structure (SMILES)	solubility kinetic [µg/mL]
Cc1ccc(S(=O)(=O)N2CCCCC2)cc1NC(=O)C1CC1	> 48.4
COc1cccc2cc(C(=O)NCc3ccc(C)cc3)c(=N)oc12	3 (≈ 9.31 µM)
N/C(=N\OC(=O)C1CCCCC1)c1ccc(Cl)cc1	8.1 (≈ 28.9 µM)
CCCN(Cc1ccccc1)C(=S)Nc1ccc(F)cc1	39.2 (≈ 130 µM)
Cl.Oc1ccc(Nc2ncnc3ccccc23)cc1	13.7
CCCCOc1ccc(CN=C(N)N)cc1Cl	> 38.4
COC(=O)c1c(NC(=O)C2CC(C)=C(C)CC2C(=O)O)sc2c1CCCCC2 (stereo not given)	58.1 (≈ 143 µM)
Cc1ccnc(N2C(=O)c3ccc([N+](=O)[O-])cc3C2=O)c1	> 42.5
CCCCn1c(CCCNC(=O)c2ccco2)nc2ccccc21	> 48.8
NC(=O)c1ccc(N2CCNC(=O)C2)c([N+](=O)[O-])c1	> 39.6
COc1ccc(CNC(=O)C2CC(=O)N(C3CCCC3)C2)cc1 (stereo not given)	> 47.5
Nc1cnn(C2OC(CO)C(O)C2O)c(=O)n1 (stereo not given)	> 36.6
N#Cc1c(N)n(-c2cccc(O)c2)c2nc3ccccc3nc12	6.4 (≈ 21.2 µM)
CCCn1c(SCC(=O)NC2CCCC2)nnc1C(C)C	> 46.6
Cc1csc(NC(=O)CSc2ccccc2F)n1	> 42.4
CCC(=O)O/N=C(\N)c1ccc(Oc2cc(C)c(Cl)c(C)c2)c([N+](=O)[O-])c1	< 0.3
Cc1cnc(NC(=O)Cc2cccs2)s1	> 35.7
COC(=O)CN1C(=O)N/C(=C/c2cc3c(cc2OC)OCO3)C1=O	6.3 (≈ 18.8 µM)
N#Cc1c(/N=C/c2cccnc2)sc2c1CCCC2	7.5 (≈ 28.1 µM)
COc1ccccc1NC(=O)COC(=O)Cn1cnc2c1c(=O)n(C)c(=O)n2C	> 60.2
